This passage reports predicted hepatic clearance results from ChEMBL document CHEMBL4364294 (J Med Chem, 2019).

Molecules are shown by their SMILES.

The data set in a line: Intrinsic clearance in human liver microsomes. It counts as ADME, Microsome. Particulars: read-out: CLH. Background: Liver microsomes are a subcellular fraction often used to study metabolism.

With `OC(CC1c2ccccc2-c2cncn21)C1CCC(F)(F)CC1` (stereo unspecified), the predicted hepatic clearance is 14.6 mL/min/kg.
